Like-named read-outs stand apart in the source and are kept apart here.
Target: T1, LRT (GST-tagged N-terminal LRT domain of BteA) (Bordetella pertussis, UniProt Q7VSD3)
T1 construct: gene BP0500; N-terminal lipid raft targeting (membrane localization) domain, aa 1-130 of 656; N-terminal GST tag (pGEX-6P1) kept; E. coli Rosetta 2
Experiment: SPR steady state, immobilized liposomes
Type: binding

T1 sequence (Q7VSD3 entry or part of it): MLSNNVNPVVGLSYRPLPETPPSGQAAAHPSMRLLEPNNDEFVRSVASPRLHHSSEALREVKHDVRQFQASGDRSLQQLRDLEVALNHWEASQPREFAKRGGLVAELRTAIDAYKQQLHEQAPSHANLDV

`CCCCCCCC/C=C\CCCCCCCC(=O)O[C@H](COC(=O)CCCCCCCCCCCCCCC)COP(=O)(O)O` [PA] showed a Kd (read-out: KD (apparent), PA/PC 5:95 (mol) liposomes, 100 nm, 50 mM Tris-HCl pH 7.4, 150 mM NaCl, 0.005% Tween-20, 25 °C, Kd in terms of protein concentration) of 492 ± 86 nM.

`CCCCCCCC/C=C\CCCCCCCC(=O)OC[C@H](COP(=O)(O)O[C@@H]1[C@H](O)[C@H](O)[C@@H](OP(=O)(O)O)[C@H](OP(=O)(O)O)[C@H]1O)OC(=O)CCCCCCC/C=C\CCCCCCCC` [PIP2] was tested, and the Kd was 446 ± 65 nM.

For `CCCCCCCC/C=C\CCCCCCCC(=O)O[C@H](COC(=O)CCCCCCCCCCCCCCC)COP(=O)(O)OC[C@H](N)C(=O)O` [PS], the Kd (read-out: KD (apparent), PS/PC 20:80 (mol) liposomes, 100 nm, 50 mM Tris-HCl pH 7.4, 150 mM NaCl, 0.005% Tween-20, 25 °C, Kd in terms of protein concentration, unit nM shared in the sentence, abstract gives ∼1.2 μM) was 1230 ± 245 nM.
